Data as given in ChEMBL document CHEMBL1909046, “DrugMatrix in vitro pharmacology data”.

What was measured:
Calcitonin receptor = molecular target: T1, Calcitonin receptor (Homo sapiens, UniProt P30988); format: cell membranes, Membrane; conditions: t47d; further: in other assays of this panel Not Active means under 50% inhibition at 10 µM
T1 sequence (P30988 whole entry): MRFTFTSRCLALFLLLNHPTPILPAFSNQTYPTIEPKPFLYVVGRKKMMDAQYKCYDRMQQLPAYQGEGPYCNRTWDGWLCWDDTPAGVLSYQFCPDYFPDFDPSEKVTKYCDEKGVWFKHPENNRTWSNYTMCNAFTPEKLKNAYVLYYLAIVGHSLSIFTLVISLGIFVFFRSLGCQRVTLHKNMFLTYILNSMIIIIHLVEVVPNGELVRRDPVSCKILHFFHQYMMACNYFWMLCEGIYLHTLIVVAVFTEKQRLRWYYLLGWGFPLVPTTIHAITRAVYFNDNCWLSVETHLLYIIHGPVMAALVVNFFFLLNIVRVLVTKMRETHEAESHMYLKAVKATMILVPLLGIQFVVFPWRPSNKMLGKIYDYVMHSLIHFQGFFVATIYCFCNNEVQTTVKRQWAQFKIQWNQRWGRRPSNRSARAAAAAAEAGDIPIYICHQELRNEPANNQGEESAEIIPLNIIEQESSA

[1] = molecular target: T2, Alpha-2C adrenergic receptor (Homo sapiens, UniProt P18825); experiment: DRUGMATRIX: Adrenergic Alpha-2C radioligand binding (ligand: [3H] MK-912); format: cell membranes, Sf9, Membrane; conditions: sf9
T2 sequence (P18825 whole entry): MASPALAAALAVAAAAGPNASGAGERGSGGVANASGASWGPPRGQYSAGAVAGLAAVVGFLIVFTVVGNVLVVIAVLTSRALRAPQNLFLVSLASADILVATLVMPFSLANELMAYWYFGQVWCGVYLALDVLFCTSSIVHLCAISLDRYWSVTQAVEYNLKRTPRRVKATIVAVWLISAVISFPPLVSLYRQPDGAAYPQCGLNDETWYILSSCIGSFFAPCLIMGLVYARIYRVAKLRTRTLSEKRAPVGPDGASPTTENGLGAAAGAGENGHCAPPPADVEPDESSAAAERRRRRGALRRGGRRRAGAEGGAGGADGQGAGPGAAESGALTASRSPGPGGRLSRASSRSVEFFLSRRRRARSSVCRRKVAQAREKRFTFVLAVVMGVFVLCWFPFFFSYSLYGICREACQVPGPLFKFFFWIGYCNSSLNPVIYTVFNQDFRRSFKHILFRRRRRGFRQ

[2] = molecular target: T3, Cholecystokinin receptor type A (Homo sapiens, UniProt P32238); format: cell membranes, Membrane; conditions: 1321-n1; further: in other assays of this panel Not Active means under 50% inhibition at 10 µM
T3 sequence (P32238 whole entry): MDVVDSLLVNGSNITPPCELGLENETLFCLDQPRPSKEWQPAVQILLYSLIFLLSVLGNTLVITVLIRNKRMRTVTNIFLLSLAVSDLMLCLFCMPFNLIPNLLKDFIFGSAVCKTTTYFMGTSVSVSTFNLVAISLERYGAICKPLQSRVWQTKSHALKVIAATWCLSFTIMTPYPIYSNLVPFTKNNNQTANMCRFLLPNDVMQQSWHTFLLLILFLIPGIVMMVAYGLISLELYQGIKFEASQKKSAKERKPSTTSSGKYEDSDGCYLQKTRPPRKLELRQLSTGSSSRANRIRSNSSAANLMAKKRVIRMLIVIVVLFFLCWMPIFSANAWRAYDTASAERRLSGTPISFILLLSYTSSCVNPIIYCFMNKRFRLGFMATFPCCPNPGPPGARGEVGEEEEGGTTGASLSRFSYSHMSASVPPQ

Adenosine receptor A2a = Adenosine receptor A2a (Homo sapiens, UniProt P29274); experiment: DRUGMATRIX: Adenosine A2A radioligand binding (ligand: […]); format: cell membranes, HEK293, Membrane; conditions: hek293; Not Active = under 50% inhibition at 10 µM
[3] = DRUGMATRIX: Imidazoline I2, Central radioligand binding (ligand: [3H] Idazoxan); format: cell membranes, Rattus norvegicus, Wistar, Cerebral cortex, Membrane; conditions: Not Active = under 50% inhibition at 10 µM
[4] = molecular target: T4, Neuropeptide Y receptor type 1 (Homo sapiens, UniProt P25929); format: cell membranes, Membrane; conditions: sk-n-mc; further: in other assays of this panel Not Active means under 50% inhibition at 10 µM
T4 sequence (P25929 whole entry): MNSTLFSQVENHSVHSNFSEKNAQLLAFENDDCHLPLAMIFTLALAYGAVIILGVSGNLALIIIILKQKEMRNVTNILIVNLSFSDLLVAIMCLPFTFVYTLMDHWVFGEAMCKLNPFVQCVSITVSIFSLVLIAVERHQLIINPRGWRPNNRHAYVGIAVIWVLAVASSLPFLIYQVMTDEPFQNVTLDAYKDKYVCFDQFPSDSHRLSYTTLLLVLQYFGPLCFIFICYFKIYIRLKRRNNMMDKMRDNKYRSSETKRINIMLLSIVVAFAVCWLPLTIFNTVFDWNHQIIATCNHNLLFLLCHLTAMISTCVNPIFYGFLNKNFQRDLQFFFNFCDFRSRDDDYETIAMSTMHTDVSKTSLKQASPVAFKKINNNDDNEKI

Melanocortin receptor 3 = Melanocortin receptor 3 (Homo sapiens, UniProt P41968); format: cell membranes, Membrane; conditions: hek293; further: in other assays of this panel Not Active means under 50% inhibition at 10 µM
Carbonic anhydrase 2 = Carbonic anhydrase 2 (Homo sapiens, UniProt P00918); experiment: DRUGMATRIX: Carbonic Anhydrase II enzyme inhibition (substrate: 4-Nitrophenyl acetate (4-NPA)); format: tissue-based, Erythrocyte; conditions: erythrocyte; Not Active = under 50% inhibition at 10 µM

Sequence of Melanocortin receptor 3 (P41968 whole entry): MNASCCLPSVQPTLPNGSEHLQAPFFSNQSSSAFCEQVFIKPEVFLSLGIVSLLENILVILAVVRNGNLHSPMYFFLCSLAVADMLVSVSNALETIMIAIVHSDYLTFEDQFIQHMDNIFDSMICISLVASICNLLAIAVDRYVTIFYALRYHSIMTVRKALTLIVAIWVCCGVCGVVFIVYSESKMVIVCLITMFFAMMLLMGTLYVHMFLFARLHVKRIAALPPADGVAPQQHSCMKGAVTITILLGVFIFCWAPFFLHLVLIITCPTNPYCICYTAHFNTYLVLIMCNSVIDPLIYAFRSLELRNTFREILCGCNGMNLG
Sequence of Adenosine receptor A2a (P29274 whole entry): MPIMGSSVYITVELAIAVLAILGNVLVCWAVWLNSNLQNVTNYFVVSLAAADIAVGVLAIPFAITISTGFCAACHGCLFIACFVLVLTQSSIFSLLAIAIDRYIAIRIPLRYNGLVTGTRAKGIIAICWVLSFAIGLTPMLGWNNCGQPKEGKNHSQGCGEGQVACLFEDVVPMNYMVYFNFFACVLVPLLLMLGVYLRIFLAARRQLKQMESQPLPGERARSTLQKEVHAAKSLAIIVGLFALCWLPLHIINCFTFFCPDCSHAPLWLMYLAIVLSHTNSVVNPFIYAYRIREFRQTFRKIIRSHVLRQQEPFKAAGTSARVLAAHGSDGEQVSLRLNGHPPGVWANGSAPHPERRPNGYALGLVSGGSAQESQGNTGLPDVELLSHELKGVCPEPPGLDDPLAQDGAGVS

C[N+](C)(C)CCO.[Cl-] [CHOLINE CHLORIDE]
Not Active: IC50 (Calcitonin receptor) | IC50 [1] | IC50 [2] | IC50 (Adenosine receptor A2a) | IC50 [3] | Ki [3] | IC50 [4] | IC50 (Melanocortin receptor 3) | IC50 (Carbonic anhydrase 2)

CCOC(=O)C(C)(C)Oc1ccc(Cl)cc1 [CLOFIBRATE]
Not Active: IC50 (Calcitonin receptor) | IC50 [1] | IC50 [2] | IC50 (Adenosine receptor A2a) | IC50 [3] | Ki [3] | IC50 [4] | IC50 (Melanocortin receptor 3) | IC50 (Carbonic anhydrase 2)

CC(=O)OCC(=O)[C@@]1(O)CC[C@H]2[C@@H]3CCC4=CC(=O)CC[C@]4(C)[C@H]3C(=O)C[C@@]21C [CORTISONE ACETATE]
Not Active: IC50 (Calcitonin receptor) | IC50 [1] | IC50 [2] | IC50 (Adenosine receptor A2a) | IC50 [3] | Ki [3] | IC50 [4] | IC50 (Melanocortin receptor 3) | IC50 (Carbonic anhydrase 2)

O=c1ccc2ccccc2o1 [COUMARIN]
Not Active: IC50 (Calcitonin receptor) | IC50 [1] | IC50 [2] | IC50 (Adenosine receptor A2a) | IC50 [3] | Ki [3] | IC50 [4] | IC50 (Melanocortin receptor 3) | IC50 (Carbonic anhydrase 2)

C[C@@H]1C[C@@H]([C@H](O)CC2CC(=O)NC(=O)C2)C(=O)[C@@H](C)C1 [CYCLOHEXIMIDE]
Not Active: IC50 (Calcitonin receptor) | IC50 [1] | IC50 [2] | IC50 (Adenosine receptor A2a) | IC50 [3] | Ki [3] | IC50 [4] | IC50 (Melanocortin receptor 3) | IC50 (Carbonic anhydrase 2)

C/C=C/C[C@@H](C)[C@@H](O)[C@H]1C(=O)N[C@@H](CC)C(=O)N(C)CC(=O)N(C)[C@@H](CC(C)C)C(=O)N[C@@H](C(C)C)C(=O)N(C)[C@@H](CC(C)C)C(=O)N[C@@H](C)C(=O)N[C@H](C)C(=O)N(C)[C@@H](CC(C)C)C(=O)N(C)[C@@H](CC(C)C)C(=O)N(C)[C@@H](C(C)C)C(=O)N1C [CYCLOSPORINE]
Not Active: IC50 (Calcitonin receptor) | IC50 [1] | IC50 [2] | IC50 (Adenosine receptor A2a) | IC50 [3] | Ki [3] | IC50 [4] | IC50 (Melanocortin receptor 3) | IC50 (Carbonic anhydrase 2)

CN(C)/N=N/c1[nH]cnc1C(N)=O [DACARBAZINE]
Not Active: IC50 (Calcitonin receptor) | IC50 [1] | IC50 [2] | IC50 (Adenosine receptor A2a) | IC50 [3] | Ki [3] | IC50 [4] | IC50 (Melanocortin receptor 3) | IC50 (Carbonic anhydrase 2)

COc1ccc2c(c1)[C@]13CCCC[C@@H]1[C@H](C2)N(C)CC3 [DEXTROMETHORPHAN]
Not Active: IC50 (Calcitonin receptor) | IC50 [1] | IC50 [2] | IC50 (Adenosine receptor A2a) | IC50 [3] | Ki [3] | IC50 [4] | IC50 (Melanocortin receptor 3) | IC50 (Carbonic anhydrase 2)

CC(=O)Nc1c(I)c(NC(C)=O)c(I)c(C(=O)O)c1I [DIATRIZOIC ACID]
Not Active: IC50 (Calcitonin receptor) | IC50 [1] | IC50 [2] | IC50 (Adenosine receptor A2a) | IC50 [3] | Ki [3] | IC50 [4] | IC50 (Melanocortin receptor 3) | IC50 (Carbonic anhydrase 2)

COP(=O)(OC)OC=C(Cl)Cl [DICHLORVOS]
Not Active: IC50 (Calcitonin receptor) | IC50 [1] | IC50 [2] | IC50 (Adenosine receptor A2a) | IC50 [3] | Ki [3] | IC50 [4] | IC50 (Melanocortin receptor 3) | IC50 (Carbonic anhydrase 2)

O=C(O)Cc1ccccc1Nc1c(Cl)cccc1Cl [DICLOFENAC]
Not Active: IC50 (Calcitonin receptor) | IC50 [1] | IC50 [2] | IC50 (Adenosine receptor A2a) | IC50 [3] | Ki [3] | IC50 [4] | IC50 (Melanocortin receptor 3) | IC50 (Carbonic anhydrase 2)

C[C@H]1O[C@@H](O[C@H]2[C@@H](O)C[C@H](O[C@H]3[C@@H](O)C[C@H](O[C@H]4CC[C@@]5(C)[C@H](CC[C@@H]6[C@@H]5CC[C@]5(C)[C@@H](C7=CC(=O)OC7)CC[C@]65O)C4)O[C@@H]3C)O[C@@H]2C)C[C@H](O)[C@@H]1O [DIGITOXIN]
Not Active: IC50 (Calcitonin receptor) | IC50 [1] | IC50 [2] | IC50 (Adenosine receptor A2a) | IC50 [3] | Ki [3] | IC50 [4] | IC50 (Melanocortin receptor 3) | IC50 (Carbonic anhydrase 2)

CCN1CC(CCN2CCOCC2)C(c2ccccc2)(c2ccccc2)C1=O (stereo unspecified) [DOXAPRAM]
Not Active: IC50 (Calcitonin receptor) | IC50 [1] | IC50 [2] | IC50 (Adenosine receptor A2a) | IC50 [3] | Ki [3] | IC50 [4] | IC50 (Melanocortin receptor 3) | Ki (Carbonic anhydrase 2)

Cn1c(=O)c2c(ncn2CC2OCCO2)n(C)c1=O [DOXOFYLLINE]
Not Active: IC50 (Calcitonin receptor) | IC50 [1] | IC50 [2] | IC50 (Adenosine receptor A2a) | IC50 [3] | Ki [3] | IC50 [4] | IC50 (Melanocortin receptor 3) | IC50 (Carbonic anhydrase 2)
